According to patent US10894788B2, “Inhibitors of cyclin-dependent kinases” (Kinnate Biopharma Inc., priority 2018, dated 2021):

What was measured:
CDK12 wt/CycK = CDK12 wt/CycK (Homo sapiens (Human), UniProt Q9NYV4); experiment: Radiometric protein kinase assay (33PanQinase Activity Assay), Assay Condition A (thiol containing conditions); type: biochemical; conditions: thiol containing conditions (1.2 mM DTT), ATP 0.3 μM; read-out: CDK12 IC50 Condition A
Outline: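 Recombinant human kinase incubated with [33P]ATP, substrate and compound (10 concentrations, 1×10^−04M to 3×10^−09M, singlicate, 1% DMSO) under thiol-containing buffer conditions, 60 min at 30 °C. 33Pi incorporation counted by scintillation; residual activity normalised to no-inhibitor and no-kinase controls, IC50 derived.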

CDK12 = CDK12 (Homo sapiens (Human), UniProt Q9NYV4); experiment: Radiometric protein kinase assay (33PanQinase Activity Assay), Assay Condition B (thiol-free conditions); type: biochemical; conditions: thiol-free conditions (1 mM TCEP, glutathione removed)
Description: Example 2—Assay Condition B (Thiol-Free Conditions)
The IC50 profile of compounds was determined using one protein kinase in a customized, thiol free assay. […] Prior to testing, the 1×10^−03 M stock solutions in column 2 of the master plates were subjected to a serial, semi-logarithmic dilution using 100% DMSO as a solvent. […] Column 1 and 7 were filled with 100% DMSO as controls. Subsequently, 2×10 microliter from each well of the serial diluted copy plates were aliquoted with a 96 channel pipettor into two identical sets of “compound dilution plates”. All plates were barcoded for automated identification and tracking purposes. […] All compounds were stored as powder until being solubilized in DMSO. Solubilized compounds were stored as 1×10^−02 M/100% DMSO stock solutions. Prior to the assay process, 90 microliters of H2O were added to each well of a set of compound dilution plates. To minimize potential precipitation, the H2O was added to each plate only a few minutes before the transfer of the compound solutions into the assay plates. Each plate was shaken thoroughly, resulting in compound dilution plates with a final of 10% DMSO. For each assay, 5 microliters of solution from each well of the compound dilution plates/10% DMSO were transferred into the assay plate. The final volume of the assay was 50 μl. All compounds were tested at 10 final assay concentrations in the range from 1×10^−05 M to 3×10^−10 M, in singlicate. The final DMSO concentration in the reaction cocktails was 1% in all cases. A radiometric protein kinase assay (33PanQinase® Activity Assay) was used for measuring the kinase activity of the protein kinase. All kinase assays were performed in 96-well FlashPlates™ from PerkinElmer (Boston, Mass., USA) in a 50 microliter reaction volume. The reaction cocktail was pipetted in four steps in the following order: 20 microliter of assay buffer (standard buffer)·5 microliter of ATP solution (in H2O)·5 microliter of test compound (in 10% DMSO)·20 microliter enzyme/substrate mix. […] For all experiments labeled as “Thiol-free”, all glutathione was exchanged from protein preparations so as to be removed from the assay and final buffer conditions contained no thiol-containing reagents. This was done so there would be no interference with the key cysteines in the proteins of interest.
For data analysis, the median value of the counts in column 1 (n=8) of each assay plate was defined as “low control”. This value reflects unspecific binding of radioactivity to the plate in the absence of a protein kinase but in the presence of the substrate. The median value of the counts in column 7 of each assay plate (n=8) was taken as the “high control”, i.e. full activity in the absence of any inhibitor. The difference between high and low control was taken as 100% activity. As part of the data evaluation the low control value from a particular plate was subtracted from the high control value as well as from all 80 “compound values” of the corresponding plate. The residual activity (in %) for each well of a particular plate was calculated by using the following formula: Res. Activity (%)=100×[(cpm of compound−low control)/(high control−low control)]
The residual activities for each concentration and the compound IC50 values were calculated using Quattro Workflow V3.1.1 (Quattro Research GmbH, Munich, Germany; www.quattro-research.com). […] The fitting method used was a least-squares fit. As a parameter for assay quality, the Z′-factor (Zhang et al., J. Biomol. Screen. 2: 67-73, 1999) for the low and high controls of each assay plate (n=8) was used. ProQinase's criterion for repetition of an assay plate is a Z′-factor below 0.4 (Iversen et al., J. Biomol. Screen. 3: 247-252, 2006).

Chain of CDK12 (Q9NYV4 whole entry): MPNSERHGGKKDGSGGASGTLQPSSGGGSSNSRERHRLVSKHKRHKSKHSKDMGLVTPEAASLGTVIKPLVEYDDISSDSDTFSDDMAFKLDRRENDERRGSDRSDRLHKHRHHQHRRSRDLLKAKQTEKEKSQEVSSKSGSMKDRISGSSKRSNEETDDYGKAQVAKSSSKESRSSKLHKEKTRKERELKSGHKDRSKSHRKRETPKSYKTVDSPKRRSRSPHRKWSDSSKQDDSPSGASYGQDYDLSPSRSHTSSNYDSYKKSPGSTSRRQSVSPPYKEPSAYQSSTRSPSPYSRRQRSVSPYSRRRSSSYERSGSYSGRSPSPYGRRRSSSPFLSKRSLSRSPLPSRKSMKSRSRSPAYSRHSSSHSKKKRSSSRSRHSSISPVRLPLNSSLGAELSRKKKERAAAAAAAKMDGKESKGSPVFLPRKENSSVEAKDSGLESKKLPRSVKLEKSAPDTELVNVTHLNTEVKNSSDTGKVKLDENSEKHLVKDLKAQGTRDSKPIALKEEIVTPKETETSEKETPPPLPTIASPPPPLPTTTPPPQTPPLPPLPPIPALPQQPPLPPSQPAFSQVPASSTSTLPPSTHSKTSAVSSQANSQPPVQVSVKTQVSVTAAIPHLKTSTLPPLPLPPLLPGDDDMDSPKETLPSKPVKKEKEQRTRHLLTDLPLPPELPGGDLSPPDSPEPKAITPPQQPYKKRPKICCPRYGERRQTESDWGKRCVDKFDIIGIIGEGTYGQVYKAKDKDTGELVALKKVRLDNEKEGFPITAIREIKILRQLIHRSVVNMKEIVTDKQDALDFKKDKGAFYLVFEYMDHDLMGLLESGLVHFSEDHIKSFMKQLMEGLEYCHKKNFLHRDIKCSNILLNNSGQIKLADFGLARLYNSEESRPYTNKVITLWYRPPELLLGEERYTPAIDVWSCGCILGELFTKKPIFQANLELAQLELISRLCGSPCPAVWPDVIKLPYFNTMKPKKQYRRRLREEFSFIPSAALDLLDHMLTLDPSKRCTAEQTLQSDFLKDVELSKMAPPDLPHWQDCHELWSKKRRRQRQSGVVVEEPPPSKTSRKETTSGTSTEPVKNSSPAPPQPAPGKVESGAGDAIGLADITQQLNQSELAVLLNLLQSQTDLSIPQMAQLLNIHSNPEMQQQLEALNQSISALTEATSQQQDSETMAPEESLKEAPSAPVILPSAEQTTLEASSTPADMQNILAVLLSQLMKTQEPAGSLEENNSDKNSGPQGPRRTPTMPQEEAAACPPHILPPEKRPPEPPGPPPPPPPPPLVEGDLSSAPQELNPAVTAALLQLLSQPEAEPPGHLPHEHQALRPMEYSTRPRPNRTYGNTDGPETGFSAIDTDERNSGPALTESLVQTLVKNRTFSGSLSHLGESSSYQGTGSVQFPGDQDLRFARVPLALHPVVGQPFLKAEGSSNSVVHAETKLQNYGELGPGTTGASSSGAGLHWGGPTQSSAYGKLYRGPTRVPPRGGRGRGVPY
Chain of CDK12 (O75909 whole entry partner): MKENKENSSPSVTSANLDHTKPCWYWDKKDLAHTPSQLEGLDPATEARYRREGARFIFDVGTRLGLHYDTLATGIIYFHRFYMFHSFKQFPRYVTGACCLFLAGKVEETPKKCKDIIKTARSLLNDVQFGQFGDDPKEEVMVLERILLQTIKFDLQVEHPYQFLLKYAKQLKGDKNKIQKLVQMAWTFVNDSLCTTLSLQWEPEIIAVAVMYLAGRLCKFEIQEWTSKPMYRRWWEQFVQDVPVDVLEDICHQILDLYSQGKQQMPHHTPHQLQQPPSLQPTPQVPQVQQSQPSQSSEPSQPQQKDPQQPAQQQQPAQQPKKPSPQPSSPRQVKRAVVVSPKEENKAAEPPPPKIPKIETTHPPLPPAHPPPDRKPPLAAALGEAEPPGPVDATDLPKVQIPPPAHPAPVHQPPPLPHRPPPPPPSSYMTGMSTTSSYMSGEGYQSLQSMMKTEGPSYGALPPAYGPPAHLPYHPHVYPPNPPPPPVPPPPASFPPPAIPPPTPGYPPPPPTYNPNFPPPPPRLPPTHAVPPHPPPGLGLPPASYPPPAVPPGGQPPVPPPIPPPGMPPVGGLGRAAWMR
Chain of CDK12 wt/CycK (Q9NYV4 whole entry): as the sequence (Q9NYV4 whole entry) above
Chain of CDK12 wt/CycK (O75909 whole entry partner): as the sequence (O75909 whole entry partner) above

Row | SMILES | IC50 (CDK12 wt/CycK) | IC50 (CDK12)
1 | CCC(=O)Nc1ccc(C(=O)N2CC[C@@H](Nc3ncc(Br)c(OC)n3)C2)cc1 [Example 14, (R)—N-(4-(3-((5-bromo-4-methoxypyrimidin-2-yl)amino)pyrrolidine-1-carbonyl)phenyl)propionamide] | < 100 nM | < 100 nM
2 | CCC(=O)Nc1ccc(C(=O)N2CC[C@@H](Nc3ncc(Br)cn3)C2)cc1 [Example 17, (R)—N-(4-(3-((5-bromopyrimidin-2-yl)amino)pyrrolidine-1-carbonyl)phenyl)propionamide] | 100 to 1000 nM | 100 to 1000 nM
3 | C=CC(=O)Nc1ccc(C(=O)N2CC[C@@H](Nc3ncc(Br)cn3)C2)cc1 [Example 19, (R)—N-(4-(3-((5-bromopyrimidin-2-yl)amino)pyrrolidine-1-carbonyl)phenyl)acrylamide] | < 100 nM | < 100 nM
4 | C=CC(=O)Nc1ccc(C(=O)N2CC[C@@H](Nc3ncc(Br)c(OC)n3)C2)cc1 [Example 20, (R)—N-(4-(3-((5-bromo-4-methoxypyrimidin-2-yl)amino)pyrrolidine-1-carbonyl)phenyl)acrylamide] | < 100 nM | < 100 nM
5 | C=CC(=O)N(C)c1ccc(C(=O)N2CC[C@@H](Nc3ncc(Cl)c(OC)n3)C2)cc1 [Example 25, (R)—N-(4-(3-((5-chloro-4-methoxypyrimidin-2-yl)amino)pyrrolidine-1-carbonyl)phenyl)-N-methylacrylamide] | < 100 nM | < 100 nM
6 | C=CC(=O)Nc1ccc(C(=O)N2CC[C@@H](Nc3ncc(Cl)c(OC)n3)C2)cc1C [Example 26, (R)—N-(4-(3-((5-chloro-4-methoxypyrimidin-2-yl)amino)pyrrolidine-1-carbonyl)-2-methylphenyl)acrylamide] | < 100 nM | < 100 nM
7 | C=CC(=O)N(C)c1ccc(C(=O)N2CC[C@@H](Nc3ncc(Cl)cn3)C2)cc1 [Example 28, (R)—N-(4-(3-((5-chloropyrimidin-2-yl)amino)pyrrolidine-1-carbonyl)phenyl)-N-methylacrylamide] | 100 to 1000 nM | 100 to 1000 nM
8 | C=CC(=O)Nc1ccc(C(=O)N2CC[C@@H](Nc3ncc(Cl)cn3)C2)cc1C [Example 29, (R)—N-(4-(3-((5-chloropyrimidin-2-yl)amino)pyrrolidine-1-carbonyl)-2-methylphenyl)acrylamide] | 100 to 1000 nM | < 100 nM
9 | C=CC(=O)Nc1ccc(C(=O)N2CC[C@@H](Nc3ncc(Cl)c(OC)n3)C2)cc1 [Example 47, (R)—N-(4-(3-((5-chloro-4-methoxypyrimidin-2-yl)amino)pyrrolidine-1-carbonyl)phenyl)acrylamide] | < 100 nM | < 100 nM
10 | C=CC(=O)Nc1ccc(C(=O)N2CC[C@@H](Nc3ncc(Cl)c(C)n3)C2)cc1 [Example 52, (R)—N-(4-(3-((5-chloro-4-methylpyrimidin-2-yl)amino)pyrrolidine-1-carbonyl)phenyl)acrylamide] | 100 to 1000 nM | < 100 nM
11 | C=CC(=O)Nc1ccc(C(=O)N2CC[C@@H](Nc3cnc(Cl)cn3)C2)cc1 [Example 53, (R)—N-(4-(3-((5-chloropyrazin-2-yl)amino)pyrrolidine-1-carbonyl)phenyl)acrylamide] | 100 to 1000 nM | 100 to 1000 nM
12 | C=CC(=O)Nc1ccc(C(=O)N2CC[C@@H](Nc3cc(OC)c(Cl)cn3)C2)cc1 [Example 54, (R)—N-(4-(3-((5-chloro-4-methoxypyridin-2-yl)amino)pyrrolidine-1-carbonyl)phenyl)acrylamide] | < 100 nM | < 100 nM
13 | C=CC(=O)Nc1ccc(C(=O)N2CC[C@@H](Nc3cc(C)c(Cl)cn3)C2)cc1 [Example 55, (R)—N-(4-(3-((5-chloro-4-methylpyridin-2-yl)amino)pyrrolidine-1-carbonyl)phenyl)acrylamide] | 100 to 1000 nM | < 100 nM
14 | C=CC(=O)Nc1ccc(C(=O)N2CC[C@@H](Nc3ncc(C4CC4)cn3)C2)cc1 [Example 58, (R)—N-(4-(3-((5-cyclopropylpyrimidin-2-yl)amino)pyrrolidine-1-carbonyl)phenyl)acrylamide] | 100 to 1000 nM | < 100 nM
15 | C=CC(=O)Nc1ccc(C(=O)N2CC[C@@H](Nc3ncc(F)c(OC)n3)C2)cc1 [Example 59, (R)—N-(4-(3-((5-fluoro-4-methoxypyrimidin-2-yl)amino)pyrrolidine-1-carbonyl)phenyl)acrylamide] | 1000 to 10000 nM | 100 to 1000 nM
16 | C=CC(=O)Nc1ccc(C(=O)N2CC[C@@H](Nc3ncc(Br)cn3)C2)cc1C [Example 76, (R)—N-(4-(3-((5-bromopyrimidin-2-yl)amino)pyrrolidine-1-carbonyl)-2-methylphenyl)acrylamide] | – | < 100 nM
17 | C=CC(=O)Nc1ccc(C(=O)N2CC[C@@H](Nc3ncc(Cl)c(OC)n3)C2)cc1N1CCN(C)CC1 [Example 78, (R)—N-(4-(3-((5-chloro-4-methoxypyrimidin-2-yl)amino)pyrrolidine-1-carbonyl)-2-(4-methylpiperazin-1-yl)phenyl)acrylamide] | – | < 100 nM
18 | C=CC(=O)Nc1ccc(C(=O)N2CC[C@@H](Nc3ncc(C(F)(F)F)cn3)C2)cc1C [Example 79, (R)—N-(2-methyl-4-(3-((5-(trifluoromethyl)pyrimidin-2-yl)amino)pyrrolidine-1-carbonyl)phenyl)acrylamide] | – | < 100 nM
19 | C=CC(=O)Nc1ccc(C(=O)N2CC[C@@H](Nc3ncc(Cl)c(C)n3)C2)cc1C [Example 80, (R)—N-(4-(3-((5-chloro-4-methylpyrimidin-2-yl)amino)pyrrolidine-1-carbonyl)-2-methylphenyl)acrylamide] | – | 100 to 1000 nM
20 | C=CC(=O)Nc1ccc(C(=O)N2CC[C@@H](Nc3ncc(C)c(OC4CC4)n3)C2)cc1 [Example 81, (R)—N-(4-(3-((4-cyclopropoxy-5-methylpyrimidin-2-yl)amino)pyrrolidine-1-carbonyl)phenyl)acrylamide] | – | 100 to 1000 nM
21 | C=CC(=O)Nc1ccc(C(=O)N2CC[C@@H](Nc3ncc(Cl)c(OC)n3)C2)cc1-c1cnn(C)c1 [Example 82, (R)—N-(4-(3-((5-chloro-4-methoxypyrimidin-2-yl)amino)pyrrolidine-1-carbonyl)-2-(1-methyl-1H-pyrazol-4-yl)phenyl)acrylamide] | – | 100 to 1000 nM
22 | C=C(CC)C(=O)Nc1ccc(C(=O)N2CC[C@@H](Nc3ncc(Cl)cn3)C2)cc1 [Example 83, (R)—N-(4-(3-((5-chloropyrimidin-2-yl)amino)pyrrolidine-1-carbonyl)phenyl)-2-methylenebutanamide] | – | 100 to 1000 nM
23 | C=CS(=O)(=O)Nc1ccc(C(=O)N2CC[C@@H](Nc3ncc(Cl)cn3)C2)cc1 [Example 84, (R)—N-(4-(3-((5-chloropyrimidin-2-yl)amino)pyrrolidine-1-carbonyl)phenyl)ethenesulfonamide] | – | 100 to 1000 nM
24 | C=CC(=O)Nc1ccc(C(=O)N2CC[C@@H](Nc3ccc(C4CC4)cn3)C2)cc1 [Example 85, (R)—N-(4-(3-((5-cyclopropylpyridin-2-yl)amino)pyrrolidine-1-carbonyl)phenyl)acrylamide] | – | 100 to 1000 nM
25 | C#Cc1cnc(N[C@@H]2CCN(C(=O)c3ccc(N(C)C(=O)C=C)cc3)C2)nc1 [Example 113, (R)—N-(4-(3-((5-ethynylpyrimidin-2-yl)amino)pyrrolidine-1-carbonyl)phenyl)-N-methylacrylamide] | – | 100 to 1000 nM
